In patent publication US20090181972A1, “Novel Inhibitors of Cysteine Proteases, the Pharmaceutical Compositions Thereof and their Therapeutic Applications” (priority 2005, published 2009):

The molecules below were run against T1, SENP1 (Homo sapiens, UniProt Q9P0U3) (assay: SENP1 activity assay). Details: MBP-SENP1 1.8 nM, 200 nM SUMO-AMC; pre-incubated 30 minutes at 25° C., 60 minutes at 37° C.; sigmoidal fit.
T1 construct: made in house; host or cells: E. coli BL21
T1 sequence (Q9P0U3 1-644): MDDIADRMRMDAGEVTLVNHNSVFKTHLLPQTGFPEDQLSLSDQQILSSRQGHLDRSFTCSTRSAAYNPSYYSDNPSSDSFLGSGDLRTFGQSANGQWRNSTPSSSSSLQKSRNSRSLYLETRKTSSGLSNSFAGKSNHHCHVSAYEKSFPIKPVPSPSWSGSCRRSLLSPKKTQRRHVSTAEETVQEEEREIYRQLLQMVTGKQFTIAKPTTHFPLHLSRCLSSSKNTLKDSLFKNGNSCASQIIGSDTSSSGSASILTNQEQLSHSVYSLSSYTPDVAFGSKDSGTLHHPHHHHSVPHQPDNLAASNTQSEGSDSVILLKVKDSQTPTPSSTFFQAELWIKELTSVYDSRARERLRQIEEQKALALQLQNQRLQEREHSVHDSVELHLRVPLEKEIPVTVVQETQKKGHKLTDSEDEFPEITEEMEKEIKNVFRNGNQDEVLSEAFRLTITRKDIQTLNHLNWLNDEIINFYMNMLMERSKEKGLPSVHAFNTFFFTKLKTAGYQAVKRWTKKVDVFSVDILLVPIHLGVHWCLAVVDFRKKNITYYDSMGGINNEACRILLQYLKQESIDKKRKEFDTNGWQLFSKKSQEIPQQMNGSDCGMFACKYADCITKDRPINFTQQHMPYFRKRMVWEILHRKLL
Assay type: biochemical
Method: The cDNA encoding SENP1 was obtained by PCR amplification from placenta mRNA. SENP1 cDNA was subcloned by PCR into a bacterial expression vector (pMAL-C2X; New England BioLabs, Inc). The sequence was ascertained by sequencing of the entire open reading frame. pMAL-C2-SENP1 was transformed into BL21 cells and grown in LB-ampicillin medium supplemented with glucose (2 g.l^−1). Fusion protein expression was induced by IPTG (0.5 mM). Bacterial cell lysates were harvested and lyzed in lysis buffer (Tris HCl 20 mM pH 7.4; 1 mM EDTA; 200 mM NaCl; 0.5% Triton X-100; 10 % glycerol; Protease Inhibitor Cocktail) followed by sonication. Proteins were affinity purified on amylose affinity resin (New England BioLabs, Inc). Bound materials were extensively washed in wash buffer (20 mM Tris HCl pH 7.4; 200 mM NaCl; 1 mM EDTA; 0.5% Triton X-100; 10% glycerol) and eluted from the resin in 10 mM maltose-containing wash buffer. Proteins were dialyzed in dialysis buffer (Tris HCl pH 7.6 20 mM; NaCl 200 mM; DTT 1 mM; EDTA 1 mM; 10% Glycerol). Proteins purifications were analyzed on 4-12% NuPAGE (Invitrogen).
MBP-SENP1 was diluted in SENP1 buffer (50 mM Tris HCl; 0.5 mM EDTA; 5 mM DTT; 0.01 % Triton X-100; Bovine Serum Albumin 0.05 mg.ml^−1 pH 7.6). Compounds stocks (100 mM) were stored at −20° C. in DMSO. Compounds were tested at the following final concentrations: 100 μM; 33.3 μM; 11.1 μM; 3.7 μM; 1.23 μM; 412 nM; 137 nM; 45.7 nM; 15.2 nM; 5 nM.
Reactions were performed as duplicates in Black LJL 96 well plates (HE microplates; Molecular Devices; 20 μl final reaction volume). The substrate concentration for SENP1 was 200 nM SUMO-AMC (Chem. Biol., 2003, 10, p. 837-846) (Boston Biochem). The concentration of the enzyme (SENP1) in specificity assays was 1.8 nM. The concentrations were determined in order to perform specificity assays under initial velocities at fixed substrate concentration. Compounds were pre-incubated with enzymes for 30 minutes at 25° C. Reactions were initiated by addition of substrate to the plates containing the enzymes (+/− compounds) diluted in assay buffer. Reactions were incubated for 60 minutes at 37° C. Reactions were stopped by adding acetic acid (100 mM final). Readings were performed on a Pherastar Fluorescent Reader (BMG). λ Emission 380 nm; λ Excitation=460 nm. Data (mean values +/− standard deviation) were analyzed as % of control (no compound) and plotted as percentage versus the Log of the compound concentration using GraphPad (Prism). Data were fitted to a sigmoidal model (variable slope).
In the case of `CCc1nnc2nc3c(nn12)C(=O)c1cc(OC)c(OC)cc1-3` [Example 5b/A, 1-Ethyl-6,7-dimethoxy-2,3,4,10,10a-pentaaza-cyclopenta[b]fluoren-9-one], the IC50 is reported as 35.7 µM.
In the case of `CCc1nnc2nc3c(nn12)-c1cc(OC)c(OC)cc1C3=O` [Example 5b/B, 3-Ethyl-6,7-dimethoxy-1,2,3a,4,10-pentaaza-cyclopenta[b]fluoren-9-one], the IC50 is reported as 1.28 µM.
In the case of “6-(7)-Chloro-1-methyl-2,3,4,10,10a-pentaaza-cyclopenta[b]fluoren-9-one [Example 3/A]”, the IC50 is reported as > 100 µM.
